Assay results reported in US20260325655A1, “DECREASING THE INTRINSICALLY DISORDERED PROTEIN ALPHA-SYNUCLEIN’S LEVELS BY TARGETING ITS STRUCTURED MRNA WITH A RIBONUCLEASE TARGETING CHIMERA” (University of Florida Research Foundation, Incorporated, priority 2023, published 2026).

Experiments:
SNCA IRE = test: MST binding affinity for SNCA IRE (A bulge model RNA); conditions: microscale thermophoresis; Cy5-labeled RNA
Protocol: (§1) Binding Affinity Measurements: Microscale Thermophoresis (MST). Binding affinity measurements were performed on a Monolith NT.115 MST system (NanoTemper Technologies) with Cy5-labeled oligonucleotides. Briefly, Cy5-labeled RNA (5 nM) was prepared in 1× Folding Buffer and folded by heating at 60° C. for 5 min and then slowly cooling to room temperature. After cooling, Tween-20 was added to a final concentration of 0.1% (v/v). Compound solutions were prepared separately in 30 μL of 1× Assay Buffer at a final concentration of 5 μM (1% (v/v) DMSO), followed by 1:1 serial dilutions in 1× Assay Buffer. RNA and compound solutions were then mixed 1:1 by volume.
(§2) Samples were incubated for 20 min at room temperature and then loaded into premium capillaries (NanoTemper Technologies, Cat #MO-K025). The following parameters were used for MST measurement: 5-20% LED power (adjusted to keep fluorescence intensity between 8000 and 18000), 80% MST power, Laser-On time=30 s, and Laser-Off time=5 s. The resulting data were analyzed by calculating the change in thermophoresis as a function of compound concentration and fitted by Equation (3) in MST analysis software (NanoTemper Technologies) to yield the dissociation constant (Kd):
(§3) where F is the concentration of fluorescently labeled RNA; unbound and bound refer to the thermophoresis signal at completely unbound and bound state of RNA, respectively; c is the concentration of the compound; f (c) is the thermophoresis signal at compound concentration of c; Kd is the dissociation constant.

fully base paired RNA = test: MST binding to fully base paired control RNA; conditions: microscale thermophoresis
Protocol: as §1, §2, §3

SNCA-UTR-Luciferase = test: SNCA-UTR luciferase reporter assay; assay type: cell-based, human; conditions: highest concentration tested
From the text: (§4) Plasmid constructs and establishment of reporter gene overexpressing cells. Construction of pIRES-Luc-EGFP-puro plasmid and pCDH-α-syn-5′-UTR-Luc-EGFP-puro plasmid used in 5′ UTR-luciferase-based selectivity assay were previously described.^4 Briefly, In-Fusion PCR cloning system (Takara Bio, Mountain View, CA, USA) was used for all plasmid constructions per the manufacturer's instructions. To ensure sequence accuracy, all plasmids generated in this study were confirmed by sequencing.
(§5) Luciferase assay. The effect of compounds on translation of SNCA IRE-containing transcript was measured by using a luciferase reporter assay. HeLa cells (~60% confluency) were transfected with plasmids (2 μg per 60 mm dish) by using JetPrime (Polyplus Transfection) according to the manufacturer's recommended procedures. Approximately 16 h after transfection, the transfection cocktail was removed, and the cells were trypsinized and seeded to 96-well plates (8,000 cells per well). After 6 h, cells were treated as described in Cell Culture. To measure the luciferase signals, the cells were then washed with 1× DPBS, and luciferase activity in each well was measured by using the ONE-Glo Luciferase Assay System (Promega) per the manufacturer's instructions. Luminescence from firefly luciferase reaction was measured using a Biomek FLx800 plate reader.

[1] = system: control luciferase reporter lacking an IRE; test: control luciferase reporter lacking an IRE; assay type: cell-based, human; conditions: reporter lacks IRE / SNCA-UTR sequence
From the text: as §4, §5

[2] = system: SNCA IRE-luciferase transcript; test: SNCA IRE-luciferase transcript abundance by RT-qPCR; assay type: cell-based, human
Protocol: RNA extraction and reverse transcription-quantitative polymerase chain reaction (RT-qPCR). Total RNA was extracted from cells using a Quick-RNA MiniPrep Kit (Zymo Research) per the manufacturer's protocol including DNase treatment. For each sample, 200 ng of RNA was reverse transcribed into cDNA by using a qScript cDNA Synthesis Kit (QuantaBio) according to the manufacturer's instructions. To assess the relative mRNA levels, RT-qPCR was performed in triplicate using SYBR Green PCR mater mix (Applied Biosystems) with a Quant Studio 5 Real-Time PCR system. The relative levels of mRNA were calculated by using the ΔΔCt method as previously described.^8
as §4

RNase L = conditions: regioisomer recruiter module of Syn-CTRL vs active recruiter (ref 48); cited from earlier work

Kd (SNCA IRE): 97 ± 3 nM | binding towards the fully base paired RNA (fully base paired RNA): no saturable binding | decrease of luminescence signal (in words) (SNCA-UTR-Luciferase): modest decrease | inhibition in the control luciferase reporter [1]: Neither compound showed inhibition
Compound: CCOC(=O)C1=C(Nc2ccccc2)S/C(=C\c2ccc(O)c(OCCOCCOCCOCCNC(=O)CCCOc3ccc(-n4c(SCC(=O)Nc5ccc6cn[nH]c6c5)nnc4-c4ccncc4)cc3)c2)C1=O [Syn-CTRL]
effect on SNCA IRE-luciferase transcript levels (in words) [2]: no effect | loss of activity of the RNase L-recruiting module in inducing RNase L cleavage (RNase L): ~ 20 -fold less active
